From patent US20210253557A1, “SUBSTITUTED TRIAZOLE DERIVATIVES AND USES THEREOF” (Bayer Pharma Aktiengesellschaft, priority 2017, published 2021)

Columns and labels:
human V1a receptor = biological target: T1, human V1a receptor (Homo sapiens, UniProt P37288); assay: Cellular in vitro assay for determining vasopressin receptor activity (V1a, aequorin luminescence); type: cell-based; details: for IC50: CHO cell line transfected with the human V1a receptor, [Arg8]-vasopressin at EC50 concentration, read-out: IC50 hV1a; for ratio IC50 hV2/hV1a: selectivity ratio of IC50 hV2 to IC50 hV1a
T1 construct: expressed in transfected cells; host or cells: CHO K1 (ATCC), also stably transfected with a modified aequorin

human V2 receptor = biological target: T2, human V2 receptor (Homo sapiens, UniProt P30518); assay: Cellular in vitro assay for determining vasopressin receptor activity (V2, CRE-luciferase); type: cell-based; details: CHO cell line transfected with the human V2 receptor; [Arg8]-vasopressin at EC50 concentration; read-out: IC50 hV2
T2 construct: expressed in transfected cells; host or cells: CHO K1 (ATCC) expressing firefly luciferase under a CRE-responsive promoter
Procedure, shortened: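 CHO K1 cells stably expressing the human V2 receptor and a CRE-driven firefly luciferase were plated the day before in DMEM/F12 with 2% FCS. Test compounds were added together with [Arg8]-vasopressin at its EC50 and incubated 3 h at 37 °C. Luciferase luminescence was read after Triton lysis and luciferin addition, giving IC50 values.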

T2 sequence (P30518 whole entry): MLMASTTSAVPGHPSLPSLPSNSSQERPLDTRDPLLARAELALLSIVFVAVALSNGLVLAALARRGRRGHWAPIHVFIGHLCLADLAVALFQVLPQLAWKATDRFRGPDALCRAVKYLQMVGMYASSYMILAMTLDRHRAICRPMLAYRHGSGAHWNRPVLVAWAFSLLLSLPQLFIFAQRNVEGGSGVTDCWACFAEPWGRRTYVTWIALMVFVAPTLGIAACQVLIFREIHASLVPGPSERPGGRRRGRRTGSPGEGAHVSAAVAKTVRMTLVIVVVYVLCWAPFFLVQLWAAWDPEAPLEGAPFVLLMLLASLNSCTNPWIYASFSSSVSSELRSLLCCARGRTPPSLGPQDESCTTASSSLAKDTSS
T1 sequence (P37288 whole entry): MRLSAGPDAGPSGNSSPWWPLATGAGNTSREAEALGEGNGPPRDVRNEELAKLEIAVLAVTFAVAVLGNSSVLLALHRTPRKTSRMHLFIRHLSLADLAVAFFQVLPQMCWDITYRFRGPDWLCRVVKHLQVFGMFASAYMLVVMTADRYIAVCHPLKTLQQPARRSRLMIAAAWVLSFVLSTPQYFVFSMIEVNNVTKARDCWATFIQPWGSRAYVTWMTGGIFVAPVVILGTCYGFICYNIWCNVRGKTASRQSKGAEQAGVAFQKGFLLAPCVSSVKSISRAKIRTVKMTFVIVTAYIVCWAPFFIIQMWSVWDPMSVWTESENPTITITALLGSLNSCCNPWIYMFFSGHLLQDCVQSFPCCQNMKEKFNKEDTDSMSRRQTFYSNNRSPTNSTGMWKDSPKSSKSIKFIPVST

Row | SMILES | IC50 (human V1a receptor) | ratio IC50 hV2/hV1a (human V1a receptor) | IC50 (human V2 receptor)
1 | NC(=O)OCc1nc(Cn2nc(-c3ccc(Cl)cc3)n(C[C@H](O)C(F)(F)F)c2=O)nn1-c1ccccc1Cl [Example 28, [1-(2-Chlorophenyl)-3-({3-(4-chlorophenyl)-5-oxo-4-[(2S)-3,3,3-trifluoro-2-hydroxypropyl]-4,5-dihydro-1H-1,2,4-triazol-1-yl}methyl)-1H-1,2,4-triazol-5-yl]methyl Carbamate] | 0.43 nM | 6.0 | 2.57 nM
2 | NC(=O)OCc1nc(Cn2nc(-c3ccc(Cl)cc3)n(C[C@H](OC(N)=O)C(F)(F)F)c2=O)nn1-c1ccccc1Cl [Example 29, (2S)-3-[1-({5-[(Carbamoyloxy)methyl]-1-(2-chlorophenyl)-1H-1,2,4-triazol-3-yl}methyl)-3-(4-chlorophenyl)-5-oxo-1,5-dihydro-4H-1,2,4-triazol-4-yl]-1,1,1-trifluoropropan-2-yl Carbamate] | 1.29 nM | 2.3 | 2.93 nM
3 | C[C@H](OC(N)=O)c1nc(Cn2nc(-c3ccc(Cl)cc3)n(C[C@H](O)C(F)(F)F)c2=O)nn1-c1cccc(F)c1 [Example 30, (1S)-1-[3-({3-(4-Chlorophenyl)-5-oxo-4-[(2S)-3,3,3-trifluoro-2-hydroxypropyl]-4,5-dihydro-1H-1,2,4-triazol-1-yl}methyl)-1-(3-fluorophenyl)-1H-1,2,4-triazol-5-yl]ethyl Carbamate] | 36.6 nM | 0.1 | 3.81 nM
4 | C[C@@H](OC(N)=O)c1nc(Cn2nc(-c3ccc(Cl)cc3)n(C[C@H](O)C(F)(F)F)c2=O)nn1-c1ccccc1Cl [Example 31, (1R)-1-[1-(2-Chlorophenyl)-3-({3-(4-chlorophenyl)-5-oxo-4-[(2S)-3,3,3-trifluoro-2-hydroxypropyl]-4,5-dihydro-1H-1,2,4-triazol-1-yl}methyl)-1H-1,2,4-triazol-5-yl]ethyl Carbamate] | 0.94 nM | 7.9 | 7.42 nM
5 | C[C@@H](OC(N)=O)c1nc(Cn2nc(-c3ccc(Cl)cc3)n(C[C@H](OC(N)=O)C(F)(F)F)c2=O)nn1-c1ccccc1Cl [Example 32, (2S)-3-[1-({5-[(1R)-1-(Carbamoyloxy)ethyl]-1-(2-chlorophenyl)-1H-1,2,4-triazol-3-yl}methyl)-3-(4-chlorophenyl)-5-oxo-1,5-dihydro-4H-1,2,4-triazol-4-yl]-1,1,1-trifluoropropan-2-yl Carbamate] | 0.51 nM | 20.3 | 10.3 nM
6 | C[C@H](OC(N)=O)c1nc(Cn2nc(-c3ccc(Cl)cc3)n(C[C@H](O)C(F)(F)F)c2=O)nn1-c1ccccc1Cl [Example 33, (1S)-1-[1-(2-Chlorophenyl)-3-({3-(4-chlorophenyl)-5-oxo-4-[(2S)-3,3,3-trifluoro-2-hydroxypropyl]-4,5-dihydro-1H-1,2,4-triazol-1-yl}methyl)-1H-1,2,4-triazol-5-yl]ethyl Carbamate] | 0.99 nM | 3.7 | 3.63 nM
7 | C[C@H](OC(N)=O)c1nc(Cn2nc(-c3ccc(Cl)cc3)n(C[C@H](OC(N)=O)C(F)(F)F)c2=O)nn1-c1ccccc1Cl [Example 34, (2S)-3-[1-({5-[(1S)-1-(Carbamoyloxy)ethyl]-1-(2-chlorophenyl)-1H-1,2,4-triazol-3-yl}methyl)-3-(4-chlorophenyl)-5-oxo-1,5-dihydro-4H-1,2,4-triazol-4-yl]-1,1,1-trifluoropropan-2-yl Carbamate] | 0.64 nM | 4.3 | 2.75 nM
8 | C[C@H](OC(N)=O)c1nc(Cn2nc(-c3ccc(Cl)cc3)n(C[C@H](O)C(F)(F)F)c2=O)nn1-c1cccc(Cl)c1 [Example 35, (1S)-1-[1-(3-Chlorophenyl)-3-({3-(4-chlorophenyl)-5-oxo-4-[(2S)-3,3,3-trifluoro-2-hydroxypropyl]-4,5-dihydro-1H-1,2,4-triazol-1-yl}methyl)-1H-1,2,4-triazol-5-yl]ethyl Carbamate] | 41.4 nM | – | 1.99 nM
